According to patent US6737383B1, “Herbicidal oxadiazolidines” (priority 1999, dated 2004):

Columns and labels:
blackgrass [1] = experiment: Test B pre/postemergence blackgrass; type: in vivo, Alopecurus myosuroides
Method in brief: (§1)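 Response is a visual 0-to-10 score relative to untreated plants, where 0 means no effect and 10 means complete control, taken twelve to sixteen days after application. Treatments went onto soil at planting and onto foliage of 1- to 4-leaf plants, using a surfactant-containing non-phytotoxic solvent.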

wild oat [2] = experiment: Test B pre/postemergence wild oat; type: in vivo, Avena fatua
Method in brief: as §1

rice = experiment: Test B flood test rice; type: in vivo, Oryza sativa
Method in brief: (§2)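 Plants were grown to the 2-leaf stage before treatment with test chemical, then held in a greenhouse for twelve to sixteen days. Injury was visually rated against untreated controls on a 0–10 scale, where 0 is no effect and 10 is complete control.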

smallflower flatsedge = experiment: Test B flood test smallflower flatsedge; type: in vivo, Cyperus difformis
Method in brief: as §2

bamyardgrass = experiment: Test B flood test barnyardgrass; type: in vivo, Echinochloa crus-galli
Method in brief: as §2

winter wheat [3] = experiment: Test E winter wheat; type: in vivo, Triticum aestivum; conditions: Postemergence
Method in brief: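 For postemergence, sowings are timed so plants reach the 1- to 4-leaf stage at spraying. Test compound is applied in a surfactant-containing solvent mixture that is non-phytotoxic. Response is judged by eye against untreated controls after approximately 21 to 28 days.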

blackgrass [4] = experiment: Test E blackgrass; type: in vivo, Alopecurus myosuroides; conditions: Preemergence
green foxtail = experiment: Test E green foxtail; type: in vivo, Setaria viridis; conditions: Preemergence
Italian ryegrass = experiment: Test E Italian ryegrass; type: in vivo, Lolium multiflorum; conditions: Preemergence
winter wheat [5] = experiment: Test E winter wheat; type: in vivo, Triticum aestivum; conditions: Preemergence
wild oat [6] = experiment: Test E wild oat; type: in vivo, Avena fatua; conditions: Preemergence
winter barley = experiment: Test E winter barley; type: in vivo, Hordeum vulgare; conditions: Preemergence
[7] = Preemergence, Rate 62 g/ha, scale of 0 to 10 where 0 is no effect and 10 is complete control
[8] = Preemergence, Rate 250 g/ha, scale of 0 to 10 where 0 is no effect and 10 is complete control
[9] = Preemergence, Rate 500 g/ha, scale of 0 to 10 where 0 is no effect and 10 is complete control
[10] = Rate 62 g/ha, Postemergence, scale of 0 to 10 where 0 is no effect and 10 is complete control
[11] = Rate 125 g/ha, Postemergence, scale 0 to 10
[12] = Rate 125 g/ha, Preemergence, scale of 0 to 10 where 0 is no effect and 10 is complete control
[13] = Rate 500 g/ha, Postemergence, scale 0 to 10, 0 no effect, 10 complete control
[14] = Rate 62 g/ha, headed Pre-emergence (flood test species), scale 0 to 10 (0 no effect, 10 complete control)
[15] = Rate 125 g/ha, Pre-emergence, flood test species, scale 0 to 10 where 0 is no effect and 10 is complete control
[16] = Rate 250 g/ha, Pre-emergence, flood-test species, scale 0 to 10, 0 is no effect, 10 is complete control
[17] = Rate 500 g/ha, Pre-emergence, flood test species, scale 0 to 10 (0 no effect, 10 complete control)
[18] = Rate 500 g/ha, 0 to 100 scale where 0 is no effect and 100 is complete control
[19] = Rate 1000 g/ha, 0 to 100 scale, 0 no effect, 100 complete control

With Cc1nc(C)c(Cn2c(=O)on(C(=O)N(c3ccc(F)cc3)C(C)C)c2=O)s1 [Compound 232] as the compound, how does the “Blackgrass plant response rating” value (blackgrass [1]; [7]) read?
The value was 2.

What about the “Blackgrass plant response rating” value (blackgrass [1]; [8]) of the same compound?
Its value is 8.

What about the “Plant response rating, Blackgrass” value (blackgrass [1]; [9]) of the same compound?
The value was 8.

What about the “Blackgrass plant response rating” value (blackgrass [1]; [10]) of the same compound?
Its value is 0.

What about the “Blackgrass plant response rating” value (blackgrass [1]; [11]) of the same compound?
Its value is 2.

What about the “Blackgrass plant response rating” value (blackgrass [1]; [12]) of the same compound?
The value was 6.

And the “Plant response rating (0 to 10; 0 is no effect, 10 is complete control), Blackgrass” value (blackgrass [1]; Rate 250 g/ha, Postemergence)?
The value was 6.

And the “Blackgrass plant response rating” value (blackgrass [1]; [13])?
The value was 7.

And the “Wild oats plant response rating” value (wild oat [2]; [7])?
Its value is 0.

What about the “Wild oats plant response rating” value (wild oat [2]; [8]) of the same compound?
The value was 3.

What about the “Plant response rating, Wild oats” value (wild oat [2]; [9]) of the same compound?
Its value is 8.

And the “Wild oats plant response rating” value (wild oat [2]; [10])?
The value was 0.

And the “Wild oats plant response rating” value (wild oat [2]; [11])?
The value was 0.

What about the “Wild oats plant response rating” value (wild oat [2]; [12]) of the same compound?
Its value is 0.

And the “Plant response rating (0 to 10; 0 is no effect, 10 is complete control), Wild oats” value (wild oat [2]; Rate 250 g/ha, Postemergence)?
Its value is 0.

And the “Wild oats plant response rating” value (wild oat [2]; [13])?
Its value is 0.

What about the “Rice plant response rating” value (rice; [14]) of the same compound?
Its value is 0.

And the “Rice plant response rating” value (rice; [15])?
The value was 0.

And the “Rice plant response rating” value (rice; [16])?
Its value is 0.

What about the “Rice plant response rating” value (rice; [17]) of the same compound?
Its value is 0.

What about the “S. Flatsedge plant response rating” value (smallflower flatsedge; [14]) of the same compound?
The value was 0.

And the “S. Flatsedge plant response rating” value (smallflower flatsedge; [15])?
The value was 0.

What about the “S. Flatsedge plant response rating” value (smallflower flatsedge; [16]) of the same compound?
Its value is 0.

And the “S. Flatsedge plant response rating” value (smallflower flatsedge; [17])?
The value was 0.

What about the “Barnyardgrass plant response rating” value (bamyardgrass; [14]) of the same compound?
Its value is 0.

And the “Barnyardgrass plant response rating” value (bamyardgrass; [15])?
The value was 0.

And the “Barnyardgrass plant response rating” value (bamyardgrass; [16])?
Its value is 0.

What about the “Barnyardgrass plant response rating” value (bamyardgrass; [17]) of the same compound?
Its value is 0.

And the “Plant response rating, Wheat (winter)” value (winter wheat [3]; Rate 1000 g/ha, 0 to 100 scale where 0 is no effect and 100 is complete control)?
The value was 60.

And the “Wheat (winter) plant response rating” value (winter wheat [3]; Rate 250 g/ha, 0 to 100 scale where 0 is no effect and 100 is complete control)?
The value was 40.

And the “Plant response rating, Wheat (winter)” value (winter wheat [3]; Rate 500 g/ha, 0 to 100 scale, 0 is no effect, 100 is complete control)?
The value was 50.

What about the “Blackgrass plant response rating (0 to 100 scale)” value (blackgrass [4]; Rate 250 g/ha) of the same compound?
Its value is 30.

And the “Plant response rating, Blackgrass” value (blackgrass [4]; [18])?
Its value is 50.

What about the “Plant response rating, Blackgrass” value (blackgrass [4]; [19]) of the same compound?
Its value is 50.

What about the “Green foxtail plant response rating (0 to 100 scale)” value (green foxtail; Rate 250 g/ha) of the same compound?
The value was 95.

And the “Plant response rating, Green foxtail” value (green foxtail; [18])?
The value was 90.

And the “Plant response rating, Green foxtail” value (green foxtail; [19])?
Its value is 100.

And the “I. Ryegrass plant response rating (0 to 100 scale)” value (Italian ryegrass; Rate 250 g/ha)?
Its value is 40.

What about the “Plant response rating, I. Ryegrass” value (Italian ryegrass; [18]) of the same compound?
Its value is 50.

And the “Plant response rating, I. Ryegrass” value (Italian ryegrass; [19])?
The value was 55.

And the “Wheat (winter) plant response rating (0 to 100 scale)” value (winter wheat [5]; Rate 250 g/ha)?
Its value is 30.

And the “Plant response rating, Wheat (winter)” value (winter wheat [5]; [18])?
Its value is 30.

What about the “Plant response rating, Wheat (winter)” value (winter wheat [5]; [19]) of the same compound?
The value was 50.

And the “Wild oat plant response rating (0 to 100 scale)” value (wild oat [6]; Rate 250 g/ha)?
Its value is 55.

What about the “Plant response rating, Wild oat” value (wild oat [6]; [18]) of the same compound?
The value was 50.

What about the “Plant response rating, Wild oat” value (wild oat [6]; [19]) of the same compound?
The value was 60.

And the “Barley (winter) plant response rating (0 to 100 scale)” value (winter barley; Rate 250 g/ha)?
Its value is 20.

What about the “Plant response rating, Barley (winter)” value (winter barley; [18]) of the same compound?
Its value is 20.

What about the “Plant response rating, Barley (winter)” value (winter barley; [19]) of the same compound?
The value was 55.
